Assay: HILIC, Merck SeQuant ZIC-HILIC, 100 × 2.1 mm, 3.5 µm, 25 °C, 0.3 mL/min, estimated dead time 0.73 min; A: water + 0.1% formic acid, pH 3; B: acetonitrile + 0.1% formic acid, pH 3; gradient (min/%B) 0/95 1.5/95 13.5/40 15.5/40 29.7/25 33.5/25 34.5/95 41.5/95
Conditions: stereoisomer not certain

| LC retention time [min] | SMILES |
| --- | --- |
| 8.16 | CC(=O)NC(Cc1cnc[nH]1)C(=O)O (stereo not given) [N,N-Acetylhistidine] |
| 8.65 | CC(=O)NC(CCCN)C(=O)O (stereo not given) [N-Acetyl-ornithine] |
| 8.35 | CC(=O)NC(CCC[NH+]=C(N)N)C(=O)[O-] (stereo not given) [N-Acetylarginine] |
| 8.42 | CC(=O)NC(CCCC[NH3+])C(=O)[O-] (stereo not drawn) [N-Alpha-acetyllysine] |
| 1.34 | O=C(O)CNC(=O)C=Cc1ccccc1 [N-Cinnamoylglycine] |
| 2.26 | CNC(=O)c1cccnc1 [N-Methylnicotinamide] |
| 2.03 | CC(=O)NCCc1c[nH]c2ccc(O)cc12 [N-acetyl-5-hydroxytryptamine] |
| 1.58 | CC(=O)NC(Cc1ccccc1)C(=O)O (stereo not given) [N-acetylphenylalanine] |
| 6.1 | NC(Cc1ccc(O)c([N+](=O)[O-])c1)C(=O)O (stereo not given) [Nitrotyrosine] |
| 9.31 | NCC(O)c1ccc(O)c(O)c1 (stereo not given) [Noradrenaline] |
| 6.15 | CCCC(C(=O)[O-])[N+](C)(C)C (stereo not given) [Norvaline betaine] |
| 12.5 | NCCCC(N)C(=O)O (stereo not given) [Ornithine] |
| 2.31 | CC(C)(CO)C(O)C(=O)NCCC(=O)O (stereo not given) [Pantothenic acid] |
| 5.8 | CC(C)CC(NC(=O)C(C)NC(=O)C(N)Cc1ccccc1)C(=O)O (stereo not drawn) [Phe-Ala-Leu] |
| 7.49 | CC(NC(=O)C(N)Cc1ccccc1)C(=O)NC(CO)C(=O)O (stereo not drawn) [Phe-Ala-Ser] |
| 2.63 | NC(=O)CCC(NC(=O)Cc1ccccc1)C(=O)O (stereo not given) [Phenylacetylglutamine] |
| 5.5 | C[N+](C)(C)[C@@H](Cc1ccccc1)C(=O)[O-] [Phenylalanine betaine] |
| 6.41 | NC(C(=O)O)c1ccccc1 (stereo not given) [Phenylglycine] |
| 2.12 | O=C(O)c1ccccc1C(=O)O [Phthalic acid] |
| 4.5 | CCC(=O)OC(CC(=O)[O-])C[N+](C)(C)C (stereo not given) [Propionylcarnitine] |

More lines, now with the values behind:

| SMILES | LC retention time [min] |
| --- | --- |
| CC(=O)N[C@H]1C(O)O[C@H](CO)[C@@H](O)[C@@H]1O (stereo partly drawn) [N-Acetyl-D-glucosamine] | 6.24 |
| CC(=O)N[C@@H](CC(=O)O)C(=O)O [N-Acetyl-L-aspartic acid] | 4.31 |
| CC(=O)NC1C(O)CC(O)(C(=O)O)OC1C(O)C(O)CO (stereo not given) [N-Acetylneuraminic acid] | 7.06 |
| CN1CCC[C@H]1C(=O)O [N-Methyl-L-proline] | 7.26 |
| CC(=O)NC(CCC(=O)O)C(=O)O (stereo not given) [N-acetylglutamate] | 3.71 |
| CC(=O)NCCCCN [N-acetylputrescine] | 8.56 |
| CSCCC(NC=O)C(=O)O (stereo not given) [N-formylmethionine] | 1.85 |
| CN[C@H](CC(=O)O)C(=O)O [N-methyl-D-aspartic acid] | 7.39 |
| CNCCc1cnc[nH]1 [Na-methylhistamine] | 15.2 |
| NCC(O)c1ccc(O)cc1 (stereo not given) [Octopamine] | 7.57 |
| CCC(NC(=O)CCC(N)C(=O)O)C(=O)NCC(=O)O (stereo not given) [Ophthalmic acid] | 7.85 |
| O=S(=O)(O)CCN1CCN(CCS(=O)(=O)O)CC1 [PIPES] | 9.12 |
| CN(CC(=O)O)C(N)=NP(=O)(O)O [Phosphocreatine] | 7.7 |
| C=C(OP(=O)(O)O)C(=O)[O-] [Phosphoenol pyruvate] | 6.22 |
| O=C(C=CC=Cc1ccc2c(c1)OCO2)N1CCCCC1 [Piperine] | 0.94 |
| O=C(NCC(=O)N1CCCC1C(=O)O)C1CCCN1 (stereo not given) [Proline-glycine-proline] | 7.66 |
| O=C(O)CNC(=O)C1CCCN1 (stereo not given) [Proline-glycine] | 7.71 |
| O=C(O)C1CC(O)CN1C(=O)C1CCCN1 (stereo not given) [Proline-hydroxyproline] | 8.4 |
| CN1CCCN=C1C=Cc1cccs1 [Pyrantel] | 2.3 |
| Cc1ncc(CO)c(C=O)c1O [Pyridoxal] | 4.94 |
